The text below walks through data of US20240025863A1, “SOS1 PROTEIN DEGRADERS, PHARMACEUTICAL COMPOSITIONS THEREOF, AND THEIR THERAPEUTIC APPLICATIONS” (BioTheryX, Inc., priority 2020, published 2024).

Holding throughout (format): cell-based
In one assay the test system is SW48 cells (wt). Briefly: Cell viability assay (CellTiter-Glo), SW48 cells. The following applies: Homo sapiens, 72 h; SW48 cells, 3 days incubation, CellTiter-Glo luminescence; read-out: Inhibition of Cancerous Cells IC50 SW48 (wt). Put shortly:
(§1)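 Seeding used reduced-serum (2.5% FBS) medium, RPMI 1640 for H358 and SW48 and DMEM for Lovo and SW480. Compound or DMSO was applied for 3 days at 37 °C; CellTiter-Glo was added and luminescence recorded after 10 min shaking.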

The subject of another assay is H358 cells (G12C). Description: Cell viability assay (CellTiter-Glo), H358 cells. The following applies: Homo sapiens, NCI-H358, 72 h; H358 cells, 3 days incubation, CellTiter-Glo luminescence; read-out: Inhibition of Cancerous Cells IC50 H358 (G12C). The method in brief: as §1
The next assay relates to SW480 cells (G12V). Description: Cell viability assay (CellTiter-Glo), SW480 cells. To be noted: Homo sapiens, 72 h; SW480 cells, 3 days incubation, CellTiter-Glo luminescence; read-out: Inhibition of Cancerous Cells IC50 SW480 (G12V). The method in brief: as §1
The subject of a further assay is Lovo cells (G13D). Description: Cell viability assay (CellTiter-Glo), Lovo cells. The following applies: Homo sapiens, 72 h; Lovo cells, 3 days incubation, CellTiter-Glo luminescence; read-out: Inhibition of Cancerous Cells IC50 Lovo (G13D). Put shortly: as §1
A general note: Cellular ATP, detected with luciferase, serves as a proxy for viable cell number.

Each structure is given as a SMILES string. pIC50: −log10 of the molar value. Bounds are passed on as bounds.

For `COc1cc2c(N[C@H](C)c3cccc(Br)c3)nc(C)nc2cc1OCCCCCCCCC(=O)NCc1ccc2c(c1)CN(C1CCC(=O)NC1=O)C2=O` (stereo partly drawn) [Compound A9, 9-((4-(((R)-1-(3-Bromophenyl)ethyl)amino)-6-methoxy-2-methylquinazolin-7-yl)oxy)-N-((2-(2,6-dioxopiperidin-3-yl)-1-oxoisoindolin-5-yl)methyl)nonanamide], the pIC50 with SW48 cells (wt) is 7.66; with H358 cells (G12C) it was 6.09; in the assay on SW480 cells (G12V), 5.92; in the assay with Lovo cells (G13D), 7.33.

Regarding `COc1ccc(C2=N[C@@H](c3ccc(Cl)cc3)[C@@H](c3ccc(Cl)cc3)N2C(=O)N2CCN(CC(=O)NCCCCCCCCOc3cc4nc(C)nc(N[C@H](C)c5cccc(Br)c5)c4cc3OC)C(=O)C2)c(OC(C)C)c1` [Compound C2, 2-(4-((4S,5R)-4,5-bis(4-chlorophenyl)-2-(2-isopropoxy-4-methoxyphenyl)-4,5-dihydro-1H-imidazole-1-carbonyl)-2-oxopiperazin-1-yl)-N-(8-((4-(((R)-1-(3-bromophenyl)-ethyl)amino)-6-methoxy-2-methylquinazolin-7-yl)oxy)octyl)acetamide], the pIC50 with SW48 cells (wt), in the assay on H358 cells (G12C), in the assay on SW480 cells (G12V) and in the assay on Lovo cells (G13D) was below 5.00 in each case.

As for `CNCc1ccccc1-c1csc([C@@H](C)Nc2nc(C)nc3cc(OCCCCCCCN4CCC(c5cc(F)cc6c5CN(C5CCC(=O)N(C)C5=O)C6=O)CC4)c(OC)cc23)c1` (stereo partly drawn) [Compound A52, 3-(6-Fluoro-4-(1-(7-((6-methoxy-2-methyl-4-(((R)-1-(4-(2-((methylamino)-methyl)phenyl)thiophen-2-yl)ethyl)amino)quinazolin-7-yl)oxy)heptyl)piperidin-4-yl)-1-oxoisoindolin-2-yl)-1-methylpiperidine-2,6-dione], the negative logarithm of the IC50 (pIC50) in the assay with SW48 cells (wt) is 6.77; in the assay on H358 cells (G12C) it was 6.68; in the assay with SW480 cells (G12V) it was 6.77; in the assay on Lovo cells (G13D), 7.38.

With `COc1cc2c(N[C@H](C)c3cccc(Br)c3)nc(C)nc2cc1OCCCCCCCCCCC(=O)N1CCC(CN2CCN(c3cc4c(cc3F)C(=O)N(C3CCC(=O)NC3=O)C4=O)CC2)CC1` (stereo partly drawn) [Compound A35, 5-(4-((1-(11-((4-(((R)-1-(3-Bromophenyl)ethyl)amino)-6-methoxy-2-methyl-quinazolin-7-yl)oxy)undecanoyl)piperidin-4-yl)methyl)piperazin-1-yl)-2-(2,6-dioxopiperidin-3-yl)-6-fluoroisoindoline-1,3-dione], the pIC50 was 5.39 with SW48 cells (wt), below 5.00 in the assay on H358 cells (G12C), 5.60 with SW480 cells (G12V) and 6.27 with Lovo cells (G13D).

Regarding `COc1cc2c(N[C@H](C)c3cccc(Br)c3)nc(C)nc2cc1C1CCN(CCCCCN2CCC(c3cc(F)cc4c3CN(C3CCC(=O)NC3=O)C4=O)CC2)CC1` (stereo partly drawn) [Compound A17, 3-(4-(1-(5-(4-(4-(((R)-1-(3-Bromophenyl)ethyl)amino)-6-methoxy-2-methyl-quinazolin-7-yl)piperidin-1-yl)pentyl)piperidin-4-yl)-6-fluoro-1-oxoisoindolin-2-yl)piperidine-2,6-dione], the pIC50 with SW48 cells (wt) was 5.96; with H358 cells (G12C) it was 5.85; in the assay with SW480 cells (G12V), 6.02; in the assay with Lovo cells (G13D) it was 6.12.

Regarding `COc1cc2c(N[C@H](C)c3cccc(Br)c3)nc(C)nc2cc1OCCCCCCCC(=O)NCc1scc2c1CN(C1CCC(=O)NC1=O)C2=O` (stereo partly drawn) [Compound A38, 8-((4-(((R)-1-(3-Bromophenyl)ethyl)amino)-6-methoxy-2-methylquinazolin-7-yl)oxy)-N-((5-(2,6-dioxopiperidin-3-yl)-4-oxo-5,6-dihydro-4H-thieno[3,4-c]pyrrol-1-yl)methyl)-octanamide], the pIC50 is 5.10 in the assay with SW48 cells (wt), 5.20 with H358 cells (G12C), 5.19 with SW480 cells (G12V) and 5.21 in the assay with Lovo cells (G13D).

On to `CNCc1ccccc1-c1csc([C@@H](C)Nc2nc(C)nc3cc(OCCCCCCCN4CCC(c5cc6c(cc5F)C(=O)N(C5CCC(=O)NC5=O)C6)CC4)c(OC)cc23)c1` (stereo partly drawn) [Compound A25, 3-(6-Fluoro-5-(1-(7-((6-methoxy-2-methyl-4-(((R)-1-(4-(2-((methylamino)-methyl)phenyl)thiophen-2-yl)ethyl)amino)quinazolin-7-yl)oxy)heptyl)piperidin-4-yl)-1-oxoisoindolin-2-yl)piperidine-2,6-dione], for which the pIC50 in the assay with SW48 cells (wt) was 6.38; in the assay with H358 cells (G12C) it was 6.29; with SW480 cells (G12V) it was 6.43; in the assay on Lovo cells (G13D) it was 6.54.

As to `COc1cc2c(N[C@H](C)c3cccc(Br)c3)nc(C)nc2cc1OCCCCCCCCCCN1CCC(c2cc(F)cc3c2CN(C2CCC(=O)NC2=O)C3=O)CC1` (stereo partly drawn) [Compound A51, 3-(4-(1-(10-((4-(((R)-1-(3-Bromophenyl)ethyl)amino)-6-methoxy-2-methyl-quinazolin-7-yl)oxy)decyl)piperidin-4-yl)-6-fluoro-1-oxoisoindolin-2-yl)piperidine-2,6-dione], the pIC50 is 6.54 in the assay with SW48 cells (wt), 6.41 in the assay on H358 cells (G12C), 6.19 with SW480 cells (G12V) and 6.80 in the assay on Lovo cells (G13D).

Turning to `COc1cc2c(N[C@H](C)c3cccc(Br)c3)nc(C)nc2cc1OCCCCCCCCC(=O)N1CCC(CN2CCN(c3cc4c(cc3F)C(=O)N(C3CCC(=O)NC3=O)C4=O)CC2)CC1` (stereo partly drawn) [Compound A34, 5-(4-((1-(9-((4-(((R)-1-(3-Bromophenyl)ethyl)amino)-6-methoxy-2-methyl-quinazolin-7-yl)oxy)nonanoyl)piperidin-4-yl)methyl)piperazin-1-yl)-2-(2,6-dioxopiperidin-3-yl)-6-fluoroisoindoline-1,3-dione], the pIC50 in the assay on SW48 cells (wt) was 5.47; with H358 cells (G12C), below 5.00; in the assay on SW480 cells (G12V) it was 6.19; in the assay with Lovo cells (G13D), 6.52.

`COc1cc2c(N[C@H](C)c3cccc(Br)c3)nc(C)nc2cc1OCCCCCCC(=O)N1CCC(CN2CCN(c3cc4c(cc3F)C(=O)N(C3CCC(=O)NC3=O)C4=O)CC2)CC1` (stereo partly drawn) [Compound A33, 5-(4-((1-(7-((4-(((R)-1-(3-Bromophenyl)ethyl)amino)-6-methoxy-2-methyl-quinazolin-7-yl)oxy)heptanoyl)piperidin-4-yl)methyl)piperazin-1-yl)-2-(2,6-dioxopiperidin-3-yl)-6-fluoroisoindoline-1,3-dione]: the pIC50 was 5.48 with SW48 cells (wt), below 5.00 with H358 cells (G12C), 6.24 in the assay on SW480 cells (G12V) and 6.74 with Lovo cells (G13D).

`COc1cc2c(N[C@H](C)c3cccc(Br)c3)nc(C)nc2c(CCCCCCCN2CCC(c3cc(F)cc4c3CN(C3CCC(=O)NC3=O)C4=O)CC2)c1OC` (stereo partly drawn) [Compound A20, 3-(4-(1-(7-(4-(((R)-1-(3-Bromophenyl)ethyl)amino)-6,7-dimethoxy-2-methyl-quinazolin-8-yl)heptyl)piperidin-4-yl)-6-fluoro-1-oxoisoindolin-2-yl)piperidine-2,6-dione]: the pIC50 in the assay with SW48 cells (wt) was 6.09; in the assay on H358 cells (G12C) it was 6.08; in the assay with SW480 cells (G12V), 5.92; in the assay with Lovo cells (G13D) it was 6.02.

In the case of `COc1cc2c(N[C@H](C)c3cccc(C(F)(F)CO)c3)nc(C)nc2cc1OCCCCCCCN1CCC(c2cc3c(cc2F)C(=O)N(C2CCC(=O)NC2=O)C3)CC1` (stereo partly drawn) [Compound A27, 3-(5-(1-(7-((4-(((R)-1-(3-(1,1-Difluoro-2-hydroxyethyl)phenyl)ethyl)amino)-6-methoxy-2-methylquinazolin-7-yl)oxy)heptyl)piperidin-4-yl)-6-fluoro-1-oxoisoindolin-2-yl)-piperidine-2,6-dione], the negative-log IC50 (pIC50) was 6.03 in the assay with SW48 cells (wt), 6.00 with H358 cells (G12C), 6.23 with SW480 cells (G12V) and 6.24 in the assay on Lovo cells (G13D).

In general, pIC50 refers to the IC50 on a negative log10 scale, so that one unit is a factor of ten.
